Columns and labels:
[1] = test system: cerebellar granule cells exposed to MPP+ neurotoxin; conditions: 100 μM Vitamin E; about 50% without; cited from earlier work
[2] = pKa and protonated cationic fraction of lubeluzole; type: physicochemical
Source text: Because lubeluzole has a PKa of 7.6 it is present in its protonated cationic form at pHs less than 7.6. For example, at pHs of 7.4 and 6.0, about 61% and 97% of lubeluzole is respectively present in its protonated cationic form. Therefore, the skilled artisan can expect a significant amount of lubeluzole to be present in its cationic form at relatively mild pHs and particularly at the pHs of physiologic CSF (˜7.5). Moreover, support for the transport of benzothiazole derivatives is found in the literature. Levamisole is believed to be a benzothiazole derivativethat has been transdermally transported iontophoretically in order to treat herpes simplex virus and recurrent aphthous stomatitis.

[3] = cited from earlier work

| Compound | in vitro viability of cerebellar granule cells exposed to MPP+ [1] | lubeluzole present in its protonated cationic form ([2]; pH 6.0) | lubeluzole present in its protonated cationic form ([2]; pH 7.4) | PKa [3] |
| --- | --- | --- | --- | --- |
| Vitamin E | about 85% |  |  |  |
| CN(c1nc2ccccc2s1)C1CCN(C[C@H](O)COc2ccc(F)c(F)c2)CC1 [lubeluzole] |  | ~97% | about 61% | 7.6 |
